Test: in vitro
Conditions: human, hela cells, % viability

Compound	viability at 28.5 h, 10 µM
CN(C)CCN(C)c1cncc(-c2ccc3ccccc3c2)n1 [CBK037146]	77.7%
CC(=O)N1CCc2sccc2C1c1ccc(NCc2ccc(F)c(F)c2)cc1 (centres unmarked) [CBK286452]	101%
CC(C)n1c(=O)n(CC(=O)N2CCCCC2)c2cccnc21 [CBK283526]	90.6%
CCNC(=O)NCc1ccc(F)cc1 [CBK115581]	84.9%
O=C(c1nc2ccccc2s1)C1CCN(C(=O)c2ccco2)CC1 [CBK284234]	83.6%
O=S(=O)(NCCOCc1ccccc1)c1ccc2c(c1)Cc1ccccc1-2 [CBK266032]	101%
O=C(Cc1ccc(NS(=O)(=O)c2cc(Cl)c(Cl)s2)nc1)N1CCOCC1 [CBK003790]	96.5%
Cc1nn2c(N)ncnc2c1-c1ccc(Cl)cc1 [CBK287880]	68.8%
O=C1CN(C(=O)NC(c2ccccc2)c2ccccc2)CCN1 [CBK155853]	93.6%
COc1ccccc1-c1cnn2c(NCC3CCCO3)cc(C)nc12 (centres unmarked) [CBK304529]	84.5%
Nc1ncc2ncn([C@@H]3O[C@H](CO)[C@H](O)C3O)c2n1 (some centres unmarked) [CBK201318]	92.8%
COc1ccccc1Oc1ccc([N+](=O)[O-])cc1F [CBK002850]	90.8%
O=C(Cc1ccc(Cl)cc1Cl)NCCc1c[nH]c2ccc(Cl)cc12 [CBK159744]	104%
COCC(=O)N[C@H]1CC(C)(C)[C@@H]2C[C@@](C)(O)CC[C@]12CCC(=O)N1CCCC1 [CBK289043]	88.4%
COc1ccc(CN2CCNC(=O)C2CC(=O)O)c(OC)c1 (centres unmarked) [CBK270072]	112%
COCCNC(=O)c1cc(-c2cc(C)oc2C)nc2c1cnn2C(C)C [CBK305052]	101%
COc1cc(OC)c2c(c1)OC1(CCN(C(=O)c3cnc(C)cn3)CC1)CC2=O [CBK156503]	105%
Cc1ccc(SCc2ccc(C(=O)NCCN3CCOCC3)cc2)cc1 [CBK269314]	98.7%
CC(=O)Nc1cccc(-c2cnc3[nH]c(=O)n(C4CC4)c3n2)c1 [CBK064859]	103%
Cc1ccc(NC(=O)C2C3C=CC(O3)C2C(=O)O)cc1 (centres unmarked) [CBK263670]	91.4%
O=C(NCCCc1nc2cc(F)ccc2[nH]1)[C@@H]1C[C@@H]2C=C[C@H]1C2 [CBK281665]	103%
COC(=O)c1cc(-c2cccnc2)[nH]n1 [CBK268945]	104%
CCOc1ccc(NCCCCO)cc1 [CBK264386]	92%

Compound	viability at 28.5 h, 10 µM
O=S(=O)(Nc1ncccn1)c1ccc(NC(=S)Nc2ccc3c(c2)OCO3)cc1 [CBK267046]	89%
N[C@@H]1CCCN(C(=O)c2ccccc2)[C@H]1c1ccccc1F [CBK281405]	106%
FC(F)(F)c1nc2ccccc2nc1SCCc1ccccc1 [CBK107204]	90.3%
CCOC(=O)c1c(NC(=O)NCc2ccncc2)sc2c1CCC2 [CBK307591]	81.6%
Cn1c(=O)n(CC(=O)NCc2ccccc2F)c2cccnc21 [CBK283909]	88.1%
CN(C(=O)c1ccc(-n2nncc2-c2ccccc2)cc1)c1ccccc1 [CBK288107]	108%
O=C1NC2(CCN(C(=O)Cc3ccc(-c4ccccc4)cc3)CC2)Nc2ccccc21 [CBK286309]	101%
COc1ccc(C)cc1S(=O)(=O)N(CC(=O)O)c1ccc(Cl)c(Cl)c1 [CBK269095]	104%
O=S(=O)(NC1CCCCC1Oc1ccccc1)c1ccc(Cl)cc1 (centres unmarked) [CBK264697]	114%
C/N=C1/SC(CC(=O)Nc2cccc(C(=O)O)c2)C(=O)N1C (centres unmarked) [CBK265581]	99.8%
O=C1c2ccccc2CN1c1nccs1 [CBK113184]	84.8%
Cn1cc(-c2nccnc2OCCc2cccs2)cn1 [CBK107066]	95%
C[C@@H](Nc1nccnc1-c1cccnc1)c1ccccc1 [CBK036759]	109%
Cc1cccc(C)c1OCC(=O)NC(C)C(=O)O (centres unmarked) [CBK287185]	86.8%
Cc1cc(C)c(S(=O)(=O)NCCN2CCN(S(=O)(=O)c3c(C)cc(C)cc3C)CC2)c(C)c1 [CBK265842]	96%
Oc1noc(O)c1-c1ncc(C(F)(F)F)cc1Cl [CBK007439]	91.1%
Cc1ccn(-c2ccc(N3CCC4(CCOC4)C3)nn2)n1 (centres unmarked) [CBK306302]	87.8%
N/N=C(\CCC(=O)O)c1ccccc1 [CBK261306]	98.3%
COc1ccccc1C1NC(=O)COC12CCN(Cc1ccccc1)CC2 (centres unmarked) [CBK092265]	109%
O=C1CC(C(=O)Nc2ccccc2)n2cnnc2N1 (centres unmarked) [CBK287980]	112%
CC(=O)c1ccc(-c2cc(C(=O)NC3CCc4ccccc43)cnc2-c2ccc(Cl)cc2)s1 (centres unmarked) [CBK036762]	96.9%
O=c1[nH]c2ncc(-c3cccc(-c4ccccc4)c3)nc2n1CCCN1CCOCC1 [CBK064311]	92.1%
CCC(C)(C)c1ccc(S(=O)(=O)Nc2ccc(F)cc2F)cc1 [CBK200039]	95.7%

Compound	viability at 28.5 h, 10 µM
Cn1c(SCC(=O)Nc2ccccc2[N+](=O)[O-])nc2ccccc2c1=O [CBK265096]	106%
O=[N+]([O-])c1cnc(NS(=O)(=O)c2ccc(-c3cc(C(F)(F)F)on3)s2)s1 [CBK067545]	103%
Cc1ccc(OCCSc2nnc(N)[nH]2)cc1 [CBK269334]	98.9%
CCOc1nc(Nc2nc(-c3ccccc3)cs2)nc(OCC)n1 [CBK262442]	98.1%
CC(C)(C)c1csc(Nc2nc3cc4c(cc3s2)OCO4)n1 [CBK287491]	93.9%
CCn1cncc1CN1CC2CCCC(O)(c3ccc(F)cc3)C2C1 (centres unmarked) [CBK282119]	104%
O=C(O)c1ccc(NS(=O)(=O)c2cc(F)c(Br)cc2F)cc1 [CBK034045]	101%
CC(=O)NCCn1cc2c(n1)[C@H]1CN(C(=O)CC(C)(C)C)C[C@H]1CC2 [CBK284592]	93.8%
Cc1cccnc1NC(=O)c1cc(O)nc2ccccc12 [CBK300499]	91.6%
O=c1oc(-c2cccc(F)c2)nc2cc(Cc3ccc4c(=O)oc(-c5cccc(F)c5)nc4c3)ccc12 [CBK262775]	121%
CCNC(=O)Nc1ccc(-c2ccc(SC)cc2)c2ccccc12 [CBK083723]	90.4%
c1ccc(Oc2cccc(CN3CCC(N4CCN(c5ccccc5)CC4)CC3)c2)cc1 [CBK264662G]	88%
COc1ccc(C(=O)N2CCC3(CCN(CCCCC4NC(=O)NC4=O)C3)C2)cc1OC (centres unmarked) [CBK132169]	83%
CCOc1cc(OCC)cc(C(=O)N2CCC3(CC2)CC(=O)c2ccc(OCC)cc2O3)c1 [CBK168014]	98.8%
CC(=O)NCCn1cc2c(n1)[C@H]1CN(C(=O)c3ccccc3)C[C@H]1C2 [CBK282073]	111%
c1ccc2[nH]c(SCCCCCSc3nc4ccccc4[nH]3)nc2c1 [CBK025418]	101%
Cc1c(CN(C)CC(=O)Nc2cccc(C(F)(F)F)c2)cnn1C [CBK304341]	85%
Cc1ccc(S(=O)(=O)Nc2nc3ccccc3nc2Nc2ccc(C(=O)O)cc2)cc1C [CBK300516]	91.5%
O=c1cc(O)c2sc3nc(-c4ccco4)cc(C(F)(F)F)c3c2[nH]1 [CBK270223]	98.2%
O=C(NCc1cc[nH]n1)N1CCCN(Cc2cccs2)CC1 [CBK305645]	82%
Cc1ccc(-c2noc(CSc3nnc(CCc4ccccc4)n3-c3ccccc3)n2)cc1 [CBK268493]	93.1%
Cc1ccc([C@@]2(O)CC[C@@H]3CN(S(=O)(=O)C(C)C)C[C@@H]32)cc1 [CBK285297]	97.8%
CCOC(=O)Cn1c(C)nc(C)cc1=O [CBK012419]	103%

Compound	viability at 28.5 h, 10 µM
Cn1cc([C@@H]2O[C@H](CO)[C@H](O)C2O)c(=O)n(C)c1=O (some centres unmarked) [CBK201191]	97.1%
Cc1ccc(NS(=O)(=O)c2cc3c(OC4CCNCC4)nccc3s2)cc1 [CBK046309C]	96%
CC(C)Nc1cc(SCc2ccc(Cl)c(Cl)c2)ncn1 [CBK103665]	85.1%
COc1ccc(F)c(CN(CC2CCNCC2)C(=O)Nc2ccccc2C(F)(F)F)c1 [CBK049805]	96.9%
O=C(NCCc1c[nH]c2ccc(Cl)cc12)c1cccnc1 [CBK159778]	106%
C[C@@H]1CN(C(=O)c2cc3ccccc3n2C)C[C@H](C)O1 [CBK200234]	91.4%
Cc1onc(-c2ccccc2Cl)c1C(=O)Nc1ccc(CC(=O)O)cc1 [CBK269623]	89.2%
O=c1[nH]c(=O)c2cc(S(=O)(=O)NCCN3CCc4ccccc43)ccc2[nH]1 [CBK286360]	91.5%
CN(C)CCCNC(=O)CCc1ccccc1 [CBK263806]	93%
OC(CNC1CCN(Cc2ccccc2)CC1)COc1ccc2c(c1)OCO2 (centres unmarked) [CBK074645]	96.5%
CCCCOc1ccc(C=Cc2nc3sc(C(=O)O)c(C)c3c(=O)[nH]2)cc1 [CBK297524]	86.5%
C=CCN1C(=O)CC2(C1=O)C(=O)N(C)c1ccc(Cl)cc12 (centres unmarked) [CBK075242]	110%
COc1ccc(/C=C/C(=O)O)cc1S(=O)(=O)N1CCCC1 [CBK058388]	93.5%
Cc1ccc(C(=O)NCCc2nnc3ccc(Cl)nn23)cc1 [CBK287636]	89.5%
NC(=O)CN1C(=O)[C@@H]2CCCN2C(=O)c2ccccc21 [CBK283090]	110%
CCc1nnc(NS(=O)(=O)c2ccc(NC(=O)c3ccc(Cl)cc3Cl)cc2)s1 [CBK045493]	88.5%
CCCc1cc(O)nc(SC(C)C(=O)N2CCOCC2)n1 (centres unmarked) [CBK305030]	86%
OC(CN1CCC(O)(Cn2cnc3ccccc32)CC1)c1ccc(-c2ccccc2)cc1 (centres unmarked) [CBK286437]	89%
CC(=O)NCc1cccc(-c2cc(C(=O)O)cnc2-c2ccc(Cl)cc2)c1 [CBK156194]	90.9%
O=C(c1ccccc1F)N1CCC(c2cc3ncccc3[nH]2)CC1 [CBK283391]	86.5%
